# System: CD95-mediated Ca^2+ response
# Test: Calcium response to cl-CD95L in Jurkat cells (Fura2/FuraPE3 video imaging)
# Assay type: cell-based
# Settings: Jurkat pre-incubated 1 hr, 10 μM peptide, 100 ng/ml cl-CD95L
# Protocol: Cells were loaded with Fura2-AM (1 μM) at resting temperature for 30 min in Hank's Balanced Salt Solution (HBSS). After washing with HBSS, the cells were incubated for 15 min in the absence of Fura2-AM to complete de-esterification of the dye. Cells were placed in a thermostated chamber (37° C.) of an inverted epifluorescence microscope (Olympus IX70) equipped with a ×40, UApo/340-1.15 W water-immersion objective (Olympus), and fluorescence micrograph images were captured at 510 nm and at 12-bit resolution by a fast-scan camera (CoolSNAP fx Monochrome, Photometrics). To minimize UV light exposure, 4×4 binning function was used. Fura2-AM was alternately excited at 340 and 380 nm, and ratios of the resulting images (excitations at 340 and 380 nm and emission filter at 520 nm) were produced at constant intervals (5 s or 10 s according to the stimulus). […] Fluorescent images were pseudocolored using the IMD display mode in MetaFluor and assembled without further manipulation in Photoshop (Adobe). Raw data were acquired with MetaFluor and graphed in Origin (OriginLab). [Ca^2+]i was calculated using the following equation: [Ca^2+]i=Kd(R−Rmin)/(R−Rmax)×Sf2/Sf1, where Kd is the Fura2-AM dissociation constant at the two excitation wavelengths (F340/F380); Rmin is the fluorescence ratio in the presence of minimal calcium, obtained by chelating Ca^2+ with 10 mM EGTA; Rmax is the fluorescence ratio in the presence of excess calcium, obtained by treating cells with 1 μM ionomycin; Sf2 is the fluorescence of the Ca^2+-free form; and Sf1 is the fluorescence of the Ca^2+-bound form of Fura2-AM at excitation wavelengths of 380 and 340 nm, respectively. In some experiments cells were placed in a Ca^2+-free medium consisting of the HBSS described above in which CaCl2 was omitted and 100 μM EGTA was added in order to chelate residual Ca^2+ ions. This medium was added to the cells just before recording to avoid leak of the intracellular calcium stores.
# T cells were loaded with Fura-PE3-AM (1 μM) at room temperature for 30 min in Hank's Balanced Salt Solution (HBSS). After washing, the cells were incubated for 15 min in the absence of Fura-PE3-AM to complete de-esterification of the dye. Cells were placed in the temperature controlled chamber (37° C.) of an inverted epifluorescence microscope (Olympus IX70) equipped with an ×40 UApo/340-1.15 W water-immersion objective (Olympus), and fluorescence micrograph images were captured at 510 nm and 12-bit resolution by a fast-scan camera (CoolSNAP fx Monochrome, Photometrics). To minimize UV light exposure, a 4×4 binning function was used. Fura-PE3 was alternately excited at 340 and 380 nm, and the ratios of the resulting images (emission filter at 520 nm) were produced at constant intervals (10 seconds). The Fura-PE3 ratio (Fratio 340/380) images were analyzed offline with Universal Imaging software, including Metafluor and Metamorph. Fratio reflects the intracellular Ca^2+ concentration changes. Each experiment was repeated 3 times, and the average of more than 20 single-cell traces was analyzed.
substance,measurement,setting,value
TAT-CID: cell penetrating peptide linking the 36-amino acid-stretch of CID (CD95 residues 175 to 210) to the HIV-TAT sequence; SEQ ID NO: 6 (RKKRRQRRRKRKEVQKTCRKHRKENQGSHESPTLNPETVAINLSD; TAT-CID),calcium response to cl-CD95L,,abolished the induction of the CD95-mediated Ca^2+ signal
same,calcium response to cl-CD95L,listed as TAT CID 175-210,greatly reduced the calcium response

# From US10189887B2, “Polypeptides and uses thereof for reducing CD95-mediated cell motility” (INSERM (INSTITUT NATIONAL DE LA SANTÉ ET DE LA RECHERCHE …, priority 2014, dated 2019)
